Earlier results as cited in patent US9849196B2, “Methods and compositions for altering photophysical properties of fluorophores via proximal quenching” (Cornell University, priority 2009, dated 2017).

Conditions: background statement

SMILES | solubility in aqueous solutions
C1=CC=CC=CC=C1 [COT, cyclooctatetraene] | highly insoluble
O=[N+]([O-])c1ccc(CO)cc1 [NBA, p-nitrobenzyl alcohol] | highly insoluble
Cc1c(C)c2c(c(C)c1O)CCC(C)(C(=O)O)O2 (stereo not drawn) [Trolox] | highly insoluble
